Data as given in article PMC12305494, “Discovery of PXR Antagonist MI891 and PXR Degrader MI1013 and Their Roles in Hepatic Gene Regulation” (Journal of Medicinal Chemistry, 2025).

Columns and labels:
PXR [1] = molecular target: T1, PXR (Homo sapiens, UniProt O75469+Q96SW2); experiment: Western blot of PXR in differentiated HepaRG cells; format: cell-based
T1 construct: differentiated hepatic HepaRG cells, which naturally express high PXR activity and expression; endogenous in cells; host or cells: differentiated HepaRG
T1 sequence (Q96SW2 whole entry, one chain of several): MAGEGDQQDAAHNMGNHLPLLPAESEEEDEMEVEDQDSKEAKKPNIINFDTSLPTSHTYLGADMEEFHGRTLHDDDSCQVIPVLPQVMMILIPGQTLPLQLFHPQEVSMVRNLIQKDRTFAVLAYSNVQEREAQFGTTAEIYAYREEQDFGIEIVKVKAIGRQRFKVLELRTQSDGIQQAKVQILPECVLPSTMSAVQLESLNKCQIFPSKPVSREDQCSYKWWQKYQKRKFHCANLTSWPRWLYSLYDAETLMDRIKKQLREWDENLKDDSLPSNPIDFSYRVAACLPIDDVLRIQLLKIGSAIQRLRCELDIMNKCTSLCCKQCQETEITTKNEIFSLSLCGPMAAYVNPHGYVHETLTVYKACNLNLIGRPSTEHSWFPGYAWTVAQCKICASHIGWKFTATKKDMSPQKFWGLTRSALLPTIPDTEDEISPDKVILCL
Experimental: The harvested HepaRG cells were lysed in RIPA lysis buffer (Cat. no 89900, Thermo Scientific) containing Halt protease inhibitor cocktail inhibitors (Thermo Scientific). Protein concentration was measured using the Pierce BCA Protein Assay Kit (Cat. no. 23225, Thermo Scientific), samples were diluted in 4 × Laemmli sample buffer (Cat. no. 1610747, BioRad) supplemented with mercaptoethanol and heated at 95 °C for 5 min. Equal amounts of protein were loaded in 4–20% Mini-PROTEAN TGX Stain-Free Protein Gels (12 well. cat. no. 4561095 or 15 well, cat. no. 4568096, Bio-Rad), electrophorised, and transferred onto Trans-Blot Turbo Midi-size PVDF Membrane (cat. no. 1704273, Bio-Rad), and blocked with EveryBlot Blocking buffer for 10 min (cat. no. 12010020, Bio-Rad). The membranes were incubated overnight at 4 °C with the following antibodies: PXR polyclonal antibody (1:500, PA5–41170, Invitrogen), RXRA polyclonal antibody (1:1000, 21218–1-AP, Proteintech), and GSPT1 polyclonal antibody (1:1000, 10763-a-AP, Proteintech), washed with TBS-T for 3 times, and followed by incubation with goat antirabbit IgG (H + L) Secondary antibody, HRP (1:200, 000, 1 h, cat. no. 31460, Invitrogen). Chemiluminescence signals were detected using SuperSignal West Femto Maximum Sensitivity Substrate (cat. no. 34096, Thermo Scientific) and visualized by the ChemiDoc MP Imaging system (Universal Hood III, #731BR02821, Bio-Rad), and the bands were quantified using β-actin (1:2000, recombinant rabbit conjugated monoclonal antibody (JF53-10), cat. no. MA5-32540, Invitrogen) as loading control with ImageJ (version 1.54g) software.

PXR [2] = molecular target: T2, PXR (Homo sapiens, UniProt O75469); settings: HepG2, rifampicin 1 or 5 μM
T2 sequence (O75469 1-434): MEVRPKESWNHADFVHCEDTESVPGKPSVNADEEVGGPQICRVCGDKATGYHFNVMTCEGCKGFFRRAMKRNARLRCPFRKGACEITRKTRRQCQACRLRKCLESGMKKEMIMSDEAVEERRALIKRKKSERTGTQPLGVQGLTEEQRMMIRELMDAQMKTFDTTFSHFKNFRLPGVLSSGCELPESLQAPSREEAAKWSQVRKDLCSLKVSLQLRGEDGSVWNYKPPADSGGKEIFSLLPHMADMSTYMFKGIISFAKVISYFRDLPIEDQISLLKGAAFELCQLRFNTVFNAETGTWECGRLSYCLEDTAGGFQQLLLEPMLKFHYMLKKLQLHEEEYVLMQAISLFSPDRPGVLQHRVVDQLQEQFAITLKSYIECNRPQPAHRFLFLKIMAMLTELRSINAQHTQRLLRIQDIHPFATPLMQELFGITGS
Experimental: The PXR activity was assessed as the PXR-dependent transcriptional activation using the construct. […] The control vector pRL-TK (Promega) constitutively expresses Renilla luciferase. […] Transient transfection experiments followed published protocols used in our laboratory and described before. , Luciferase reporter assays were conducted to evaluate interactions with PXR or CAR and their variants in HepG2, or COS-1. Cells were seeded at a density of 40,000 cells/cm^2 in 48-well plates (ThermoFisher Scientific) and maintained at 37 °C in a humidified atmosphere with 5% CO2. […] Following seeding, HepG2 cells were transfected with 150 ng/well of a luciferase reporter construct and 100 ng/well of a nuclear receptor expression vector using Lipofectamine 3000 (ThermoFisher Scientific) and with pRL-TK (30 ng/well) serving as the normalization control. After 24 h, cells were treated with test compounds for 24 h before cell lysis and subsequent firefly and Renilla luciferase activity analysis using the Dual-Glo Luciferase Assay System (Promega). […] The activities of test compounds were normalized to the respective controls to determine % activation or inhibition.

human CAR LBD = molecular target: T3, human CAR LBD (Homo sapiens, UniProt Q14994); experiment: CAR LBD assembly assay (CAR AA); format: cell-based
T3 construct: constructs encoding helices 3–12 and helix 1 of human CAR LBD; expressed in transfected cells; host or cells: HepG2
T3 sequence (Q14994 103-150 isoform Q14994-2 limits assumed): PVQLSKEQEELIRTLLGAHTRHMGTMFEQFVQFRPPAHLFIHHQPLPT
T3 sequence (Q14994 151-348 isoform Q14994-2 limits assumed): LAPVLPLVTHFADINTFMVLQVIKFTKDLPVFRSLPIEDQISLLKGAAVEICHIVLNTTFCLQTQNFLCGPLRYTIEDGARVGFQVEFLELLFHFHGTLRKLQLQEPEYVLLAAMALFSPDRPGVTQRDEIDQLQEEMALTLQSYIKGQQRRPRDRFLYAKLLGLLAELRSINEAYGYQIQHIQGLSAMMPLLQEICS
Excerpt: The CAR LBD assembly assay used constructs encoding helices 3–12 and helix 1 of human CAR LBD as described before. GL4.31[luc2P/GAL4UAS/Hygro] (pGAL4 UAS-luc) luciferase reporter vector and pRL-TK Renilla expression vector (Promega) were used in the assay in HepG2 cells transfected using Lipofectamine 3000.

rhesus monkey PXR (oPXR) = rhesus monkey PXR (oPXR) (Macaca mulatta, UniProt Q8SQ01); experiment: Rhesus monkey PXR luciferase reporter assay; format: cell-based; settings: rifampicin as prototypical inducer
rhesus monkey PXR (oPXR), sequence (Q8SQ01 whole entry): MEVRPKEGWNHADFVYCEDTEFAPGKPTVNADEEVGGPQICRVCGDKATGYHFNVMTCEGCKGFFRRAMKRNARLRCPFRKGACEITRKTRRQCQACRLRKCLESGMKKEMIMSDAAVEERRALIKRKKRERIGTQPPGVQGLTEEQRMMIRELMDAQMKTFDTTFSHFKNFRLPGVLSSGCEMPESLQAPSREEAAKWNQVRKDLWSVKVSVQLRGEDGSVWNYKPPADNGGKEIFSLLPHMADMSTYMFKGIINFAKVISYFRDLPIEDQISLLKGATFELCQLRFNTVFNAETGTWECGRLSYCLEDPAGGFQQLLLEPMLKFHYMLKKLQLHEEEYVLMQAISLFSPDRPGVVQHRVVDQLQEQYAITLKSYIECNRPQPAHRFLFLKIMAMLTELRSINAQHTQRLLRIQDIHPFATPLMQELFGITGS
Experimental: The CYP3A4 gene promoter luciferase reporter construct (p3A4-luc) bears a distal XREM (−7836/–7208) and a proximal promoter sequence (prPXRE, −362/+53) from the CYP3A4 gene promoter region. […] The human PXR expression vector (variant 1, NM_003889.3) as well as vectors for mouse, rat, and monkey orthologues were described in our recent paper (39). […] Rhesus monkey, mouse, and rat PXR expression vectors (100 ng/well each) were also obtained from GenScript. […] Carlberg (University of Kuopio, Kuopio, Finland).
The cells were cultured in DMEM medium (Merck) supplemented with 10% fetal bovine serum.

AMPKα1(h) = AMPKα1(h) (Homo sapiens, UniProt Q13131); experiment: Off-target kinase panel; format: biochemical; settings: MI891 @ 1 µM
AMPKα1(h), sequence (Q13131 whole entry): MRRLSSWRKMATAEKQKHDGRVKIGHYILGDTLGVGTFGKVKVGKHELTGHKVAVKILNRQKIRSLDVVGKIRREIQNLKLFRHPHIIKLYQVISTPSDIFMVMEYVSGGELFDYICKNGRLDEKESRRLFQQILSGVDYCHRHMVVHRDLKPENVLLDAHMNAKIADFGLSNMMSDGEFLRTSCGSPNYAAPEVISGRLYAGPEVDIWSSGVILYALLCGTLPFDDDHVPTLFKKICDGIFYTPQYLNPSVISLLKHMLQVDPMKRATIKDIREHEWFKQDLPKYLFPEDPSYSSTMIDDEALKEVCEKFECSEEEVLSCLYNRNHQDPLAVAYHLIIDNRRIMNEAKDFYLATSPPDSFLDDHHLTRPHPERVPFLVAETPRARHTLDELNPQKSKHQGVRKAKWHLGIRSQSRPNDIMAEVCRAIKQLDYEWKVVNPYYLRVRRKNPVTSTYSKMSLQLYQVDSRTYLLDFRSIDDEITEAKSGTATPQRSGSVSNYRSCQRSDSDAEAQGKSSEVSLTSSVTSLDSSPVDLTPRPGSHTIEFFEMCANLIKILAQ
AMPKα1(h), sequence (Q9Y478 whole entry partner): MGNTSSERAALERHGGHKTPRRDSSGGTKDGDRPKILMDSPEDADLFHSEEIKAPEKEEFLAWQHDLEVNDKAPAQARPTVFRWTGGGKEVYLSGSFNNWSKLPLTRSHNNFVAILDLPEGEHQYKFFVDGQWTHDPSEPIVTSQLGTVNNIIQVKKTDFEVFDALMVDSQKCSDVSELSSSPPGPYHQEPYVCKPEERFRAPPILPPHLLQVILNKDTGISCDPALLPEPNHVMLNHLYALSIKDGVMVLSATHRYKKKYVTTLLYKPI
AMPKα1(h), sequence (P54619 whole entry partner): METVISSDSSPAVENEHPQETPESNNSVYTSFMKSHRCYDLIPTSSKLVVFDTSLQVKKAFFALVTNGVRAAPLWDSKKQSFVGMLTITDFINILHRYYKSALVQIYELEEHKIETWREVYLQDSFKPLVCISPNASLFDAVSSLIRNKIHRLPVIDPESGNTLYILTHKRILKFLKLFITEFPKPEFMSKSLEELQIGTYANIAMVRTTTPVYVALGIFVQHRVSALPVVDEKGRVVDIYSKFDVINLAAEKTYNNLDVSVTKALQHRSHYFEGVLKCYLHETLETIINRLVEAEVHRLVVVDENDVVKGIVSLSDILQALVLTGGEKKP
Experimental: (§1) To evaluate the selectivity of MI891, an off-target profiling study was performed using a panel of 58 kinases.

CDK7/cyclinH/MAT1(h) = CDK7/cyclinH/MAT1(h) (Homo sapiens, UniProt P50613); experiment: Off-target kinase panel; format: biochemical; settings: MI891 @ 1 µM
Experimental: as §1

CHK1(h) = CHK1(h) (Homo sapiens, UniProt O14757); experiment: Off-target kinase panel; format: biochemical; settings: MI891 @ 1 µM
CHK1(h), sequence (O14757 whole entry): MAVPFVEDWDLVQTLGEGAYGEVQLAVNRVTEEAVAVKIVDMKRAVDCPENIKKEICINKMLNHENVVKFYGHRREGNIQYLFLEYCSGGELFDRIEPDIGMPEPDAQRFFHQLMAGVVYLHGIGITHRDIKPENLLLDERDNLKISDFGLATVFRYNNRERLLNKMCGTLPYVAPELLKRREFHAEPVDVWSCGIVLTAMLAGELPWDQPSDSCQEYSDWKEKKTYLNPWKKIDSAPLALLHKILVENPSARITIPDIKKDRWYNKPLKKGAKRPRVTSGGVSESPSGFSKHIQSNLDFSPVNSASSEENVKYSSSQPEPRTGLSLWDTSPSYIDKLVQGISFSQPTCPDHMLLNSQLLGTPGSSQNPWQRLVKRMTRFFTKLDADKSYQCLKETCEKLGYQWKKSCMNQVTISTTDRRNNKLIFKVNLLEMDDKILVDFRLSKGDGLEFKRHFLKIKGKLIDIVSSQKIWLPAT
Experimental: as §1

CaMKI(h) = CaMKI(h) (Homo sapiens, UniProt Q14012); experiment: Off-target kinase panel; format: biochemical; settings: MI891 @ 1 µM
Experimental: as §1

Lyn(h) = molecular target: T4, Lyn(h) (Homo sapiens, UniProt P07948); experiment: Off-target kinase panel; format: biochemical; settings: MI891 @ 1 µM
T4 construct: purchased Eurofins (Millipore) KinaseProfiler, inferred from the naming style
Experimental: as §1

MEK1(h) = molecular target: T5, MEK1(h) (Homo sapiens, UniProt Q02750); experiment: Off-target kinase panel; format: biochemical; settings: MI891 @ 1 µM
T5 construct: purchased Eurofins (Millipore) KinaseProfiler, inferred from the naming style
T5 sequence (Q02750 whole entry): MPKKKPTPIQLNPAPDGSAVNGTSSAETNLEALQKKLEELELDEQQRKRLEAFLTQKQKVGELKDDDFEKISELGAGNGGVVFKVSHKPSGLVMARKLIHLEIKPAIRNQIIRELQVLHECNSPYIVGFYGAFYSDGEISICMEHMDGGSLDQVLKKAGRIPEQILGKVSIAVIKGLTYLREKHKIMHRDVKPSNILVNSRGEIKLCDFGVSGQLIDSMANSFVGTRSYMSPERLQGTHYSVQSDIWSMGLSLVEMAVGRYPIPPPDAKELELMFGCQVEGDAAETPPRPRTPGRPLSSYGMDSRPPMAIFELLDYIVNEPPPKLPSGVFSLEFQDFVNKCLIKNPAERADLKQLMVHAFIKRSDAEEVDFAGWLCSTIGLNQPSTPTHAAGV
Experimental: as §1

MSK2(h) = molecular target: T6, MSK2(h) (Homo sapiens, UniProt O75676); experiment: Off-target kinase panel; format: biochemical; settings: MI891 @ 1 µM
T6 construct: purchased Eurofins (Millipore) KinaseProfiler, inferred from the naming style
T6 sequence (O75676 whole entry): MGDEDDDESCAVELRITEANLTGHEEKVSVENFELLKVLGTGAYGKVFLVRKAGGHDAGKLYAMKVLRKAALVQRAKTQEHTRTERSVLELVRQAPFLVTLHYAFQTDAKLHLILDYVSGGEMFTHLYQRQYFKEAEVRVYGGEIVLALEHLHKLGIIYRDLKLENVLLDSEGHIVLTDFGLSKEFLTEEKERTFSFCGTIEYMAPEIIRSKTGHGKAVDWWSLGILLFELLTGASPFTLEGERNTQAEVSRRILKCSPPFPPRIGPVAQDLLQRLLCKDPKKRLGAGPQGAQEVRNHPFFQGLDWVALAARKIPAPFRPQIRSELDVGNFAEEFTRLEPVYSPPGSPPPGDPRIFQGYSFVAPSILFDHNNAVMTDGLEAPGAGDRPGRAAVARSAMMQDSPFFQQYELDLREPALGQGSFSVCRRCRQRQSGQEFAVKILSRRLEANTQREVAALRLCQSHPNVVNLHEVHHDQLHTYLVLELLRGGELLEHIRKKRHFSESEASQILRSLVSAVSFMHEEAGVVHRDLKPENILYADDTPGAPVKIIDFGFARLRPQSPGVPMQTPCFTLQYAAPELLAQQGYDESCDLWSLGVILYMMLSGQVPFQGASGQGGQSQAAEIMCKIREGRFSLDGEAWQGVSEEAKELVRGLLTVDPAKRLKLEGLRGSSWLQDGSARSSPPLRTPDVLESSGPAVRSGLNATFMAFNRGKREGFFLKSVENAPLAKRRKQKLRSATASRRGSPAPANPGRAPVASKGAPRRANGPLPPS
Experimental: as §1

PI3 Kinase (p120g)(h) = molecular target: T7, PI3 Kinase (p120g)(h) (Homo sapiens, UniProt P48736); experiment: Off-target kinase panel; format: biochemical; settings: MI891 @ 1 µM
T7 construct: purchased Eurofins (Millipore) KinaseProfiler, inferred from the naming style
T7 sequence (P48736 whole entry): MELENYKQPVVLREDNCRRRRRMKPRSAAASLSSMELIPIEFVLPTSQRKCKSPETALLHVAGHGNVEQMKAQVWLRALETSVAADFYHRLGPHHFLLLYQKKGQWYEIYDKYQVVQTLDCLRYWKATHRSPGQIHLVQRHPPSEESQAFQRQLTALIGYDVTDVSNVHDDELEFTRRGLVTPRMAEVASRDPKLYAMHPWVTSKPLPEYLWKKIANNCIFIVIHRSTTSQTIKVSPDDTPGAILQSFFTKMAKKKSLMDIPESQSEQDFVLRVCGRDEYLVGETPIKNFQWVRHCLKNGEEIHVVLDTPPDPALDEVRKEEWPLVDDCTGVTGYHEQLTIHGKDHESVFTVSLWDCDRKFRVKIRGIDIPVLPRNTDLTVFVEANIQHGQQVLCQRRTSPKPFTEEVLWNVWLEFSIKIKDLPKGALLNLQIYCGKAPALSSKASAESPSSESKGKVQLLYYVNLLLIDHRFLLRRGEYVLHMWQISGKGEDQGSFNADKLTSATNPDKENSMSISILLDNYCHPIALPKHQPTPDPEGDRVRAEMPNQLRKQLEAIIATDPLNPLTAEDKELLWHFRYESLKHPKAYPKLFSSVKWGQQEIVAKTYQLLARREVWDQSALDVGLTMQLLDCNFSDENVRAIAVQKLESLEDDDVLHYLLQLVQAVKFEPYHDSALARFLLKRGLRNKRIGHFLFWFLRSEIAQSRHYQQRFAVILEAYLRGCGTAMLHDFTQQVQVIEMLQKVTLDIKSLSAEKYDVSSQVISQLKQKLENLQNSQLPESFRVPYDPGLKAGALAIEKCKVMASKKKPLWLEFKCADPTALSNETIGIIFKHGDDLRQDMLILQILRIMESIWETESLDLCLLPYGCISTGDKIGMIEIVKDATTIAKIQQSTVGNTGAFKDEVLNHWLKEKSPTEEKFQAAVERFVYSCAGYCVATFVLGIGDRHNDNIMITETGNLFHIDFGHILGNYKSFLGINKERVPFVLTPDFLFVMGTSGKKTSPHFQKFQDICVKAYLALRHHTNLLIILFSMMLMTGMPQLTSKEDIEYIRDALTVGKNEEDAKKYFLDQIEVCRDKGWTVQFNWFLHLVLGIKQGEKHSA
Experimental: as §1

Rsk1(h) = molecular target: T8, Rsk1(h) (Homo sapiens, UniProt Q15418); experiment: Off-target kinase panel; format: biochemical; settings: MI891 @ 1 µM
T8 construct: purchased Eurofins (Millipore) KinaseProfiler, inferred from the naming style
Experimental: as §1

Row | Molecule | PXR degradation, time course (PXR [1]; 2 μM, reversal of PXR expression after 72 h) | PXR degradation (Western blot) (PXR [1]; 24 h) | PXR degradation Dmax (PXR [1]; 24 h, Western blot) [%] | DC50 (PXR [1]; 24 h, Western blot, read-out: PXR degradation DC50) [nM] | inhibition of PXR activation by rifampicin (PXR [2]) | activation of CAR LBD assembly (human CAR LBD; at 10 μM concentration) | EC50 (human CAR LBD; na = no activity, tox = cytotoxicity in HepG2 cells) [nM] | activity on rhesus monkey PXR (oPXR) (rhesus monkey PXR (oPXR)) | activity at 1 µM (AMPKα1(h)) [%] | activity at 1 µM (CDK7/cyclinH/MAT1(h)) [%] | activity at 1 µM (CHK1(h)) [%] | activity at 1 µM (CaMKI(h)) [%] | activity at 1 µM (Lyn(h)) [%] | activity at 1 µM (MEK1(h)) [%] | activity at 1 µM (MSK2(h)) [%] | activity at 1 µM (PI3 Kinase (p120g)(h)) [%] | activity at 1 µM (Rsk1(h)) [%]
1 | N-(4-((1-(2,5-dimethoxyphenyl)-5-methyl-1H-1,2,3-triazol-4-yl)sulfonyl)phenyl)-3-(2-(2-(2-(4-(((2-(2,6-dioxopiperidin-3-yl)-1,3-dioxoisoindolin-4-yl)amino)methyl)-1H-1,2,3-triazol-1-yl)ethoxy)ethoxy)ethoxy)propenamide [Compound 36] | significant degradation of PXR after 12 h | selectively degrades PXR | 82 | 89 | concentration-dependent inhibition of PXR activation by rifampicin |  |  |  |  |  |  |  |  |  |  |  | 
2 | NC(=O)c1cc(Cn2cc(-c3c(-c4ccc(Cl)cc4)nc4c(F)cc(F)cn34)nn2)ccc1Cl [Compound 11, 2-Chloro-5-((4-(2-(4-chlorophenyl)-6,8-difluoroimidazo[1,2-a]pyridin-3-yl)-1H-1,2,3-triazol-1-yl)methyl)-benzamide] |  |  |  |  |  | lack of significant (p value 0.07) activation | > 10000 | full agonism | 102 | 94 | 93 | 95 | 88 | 94 | 110 | 102 | 129
